Results from patent US20160074428A1, “COMPOSITIONS AND METHODS FOR THE TREATMENT OF HUMAN IMMUNODEFICIENCY VIRUS INFECTION” (THE CHILDREN'S HOSPITAL OF PHILADELPHIA, priority 2013, published 2016).
No end group written: not given here.

How the values were obtained:
HIV = details: cited from earlier work
lymphocytes = experiment: Intracellular calcium measurement by flow cytometry in lymphocytes; format: cell-based, human; details: SP at concentrations as high as 30 μM; data not shown
Experimental: (§1) Intracellular calcium measurements. Freshly isolated monocytes were washed in Hank's balanced salt solution (HBSS) containing 1 mM calcium chloride then loaded with Fluo-4 AM (2 μM) and Fura-red AM (2 μM). Intracellular calcium recordings were performed using the Accuri C6 Analyzer (BD Biosciences, San Jose, Calif.). Fluorescence intensities were recorded in FL1-A (Fluo-4 AM) and FL3-A (Fura-red AM) channels. Intracellular calcium measurements were quantified by calculating the ratio between FL1-A/FL3-A values as a derived parameter in FlowJo 7.6.5 for Windows (Treestar Inc., Ashland, Oreg.) as previously described (1).
SP induces intracellular calcium increase in human monocytes. Our previous studies have shown that in U373MG cell NK1R stimulates the release of Ca^2+ from intracellular stores though activation of phospholipase C. To assess whether the effect of SP on monocytes is due to activation of NK1R we examined the levels of intracellular Ca^2+. We used a ratiometric calcium assay, where PBMC were loaded with Fluo-4 and Fura-red, then stimulated again with SP or appropriate agonist. Gating on lymphocyte and monocyte populations was performed based of light scattering properties of the cells (FIG. 1A). […] This pharmacology profile of NK1R, with high concentrations of SP required to elicit a response is consistent with the truncated form of NK1R.

CD163 = CD163 measurement by flow cytometry on monocytes/macrophages; format: cell-based, human; details: for CD163 expression, time course: 10 μM SP
Experimental: CD163 measurement by flow cytometry. For time-course experiments, freshly isolated monocytes were stimulated with either IL-10 (20 ng/ml) or SP (10 μM) and after 0, 2, 4 and 6 days of culture the cells were detached and the expression of membrane-bound CD163 was quantified by flow cytometry. For the dose-response experiments, freshly isolated monocytes were stimulated with either IL-10 (0.2, 0.6, 2, 6 or 20 ng/ml) or SP (0.3, 1, 3, 10 or 30 μM) and after 4 days of culture the cells were detached for CD163 measurement. Macrophages were detached using Lidocaine (4 mg/ml) in HBSS with EDTA (1 mM) for 30 minutes at 37° C. Cells were labeled with anti-human CD163 antibody (clone R-20) conjugated with PE (Trillium Diagnostics, Scarborough, Me.) for 30 minutes at room temperature. After labeling, cells were washed and resuspended in Hank's balanced salt solution (HBSS). Flow cytometry experiments were performed on an Accuri C6 analyzer (BD Biosciences, San Jose, Calif.) in the Flow Cytometry Core Laboratory of the Children's Hospital of Philadelphia Research Institute.

NK1R = target: T1, NK1R (Homo sapiens, UniProt P25103); experiment: Intracellular calcium measurement by flow cytometry (Fluo-4/Fura-red ratio) in monocytes; format: cell-based
T1 construct: endogenous in cells; host or cells: freshly isolated human blood monocytes (gated within PBMC)
T1 sequence (P25103 1-311): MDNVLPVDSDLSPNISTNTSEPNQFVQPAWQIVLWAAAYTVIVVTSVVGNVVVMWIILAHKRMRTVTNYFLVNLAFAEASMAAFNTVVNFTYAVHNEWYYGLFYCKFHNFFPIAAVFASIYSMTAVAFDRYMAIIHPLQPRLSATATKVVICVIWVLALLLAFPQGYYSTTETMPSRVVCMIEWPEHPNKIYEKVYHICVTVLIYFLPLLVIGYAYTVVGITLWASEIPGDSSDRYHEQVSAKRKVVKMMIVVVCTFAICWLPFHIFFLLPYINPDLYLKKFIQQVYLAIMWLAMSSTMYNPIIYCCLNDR
Experimental: as §1
Gating on lymphocyte and monocyte populations was performed based of light scattering properties of the cells (FIG. 1A).

[1] = tested on: HIV-GFP-tagged reporter virus pSF162R3 Nef+; experiment: Infection of macrophages with HIV-GFP-tagged reporter virus, GFP fluorescence; format: cell-based; details: 0, 2, 10 or 50 μg/ml HbHp complex, 7 days postinfection
Experimental: FIG. 5. Effect of HbHp-complexes on HIV infection in macrophages. Hb and Hp were added to macrophages in a 1:1 molar ratio and incubated for 2 h at 37° C. a) Macrophages, treated with 0, 2, 10 or 20 μg/ml of HbHp complex and infected with HIV-BaL, were assayed 7 days postinfection for HIV GAG by real time RT PCR. b) Macrophages, treated with 0, 2, 10 or 50 μg/ml of HbHp complex and infected with HIV-GFP-tagged reported virus, were assayed 7 days postinfection for GFP fluorescence. c) Representative images of macrophages, treated with 0, 2, 10, and 50 μg/ml of HbHp complex and infected with HIV-GFP-tagged reported virus 7 days postinfection. Average results of three independent experiments are presented as mean±SD.
Virus. The M-tropic HIV-1 R5 strain Bal was obtained from the NIH AIDS Reagent Program. The HIV-GFP-tagged reporter virus pSF162R3 Nef+, was made based on HIV-SF162 strain and was a gift from Dr. Amanda Brown (John Hopkins School of Medicine, Baltimore, Md.) (45).
Microscopy. Macrophages were infected with HIV-GFP-tagged reported virus pSF162R3 Nef+. […] GFP intensity was quantified using ImageJ (National Institute of Mental Health, Bethesda, Md., USA).

HIV-Bal = HIV-Bal infection of macrophages, HIV gag mRNA by real time RT-PCR; format: cell-based, HIV-1; details: 0, 2, 10 or 20 μg/ml HbHp complex, 7 days postinfection
Experimental: HIV infection. Macrophages were incubated with HIV-Bal virus overnight, and then extensively washed to remove unbound virus. The culture medium and the reagents were replaced twice weekly. At days 5, 7, 9 and 11 post HIV infection, cellular RNA was extracted from the MDM for assessment of HIV gag mRNA expression using real time RT-PCR assays.
RNA Extraction and Real-Time RT PCR Assays. Total RNA was extracted from macrophages using RNeasy kit (Qiagen), and the potential DNA contamination was eliminated by on-column DNase digestion as instructed by the manufacturer (Qiagen). RNA concentration was determined by Qubit fluorometer using Quant-iT RNA Assay kit (Invitrogen, Eugene, Oreg.).
Total RNA (1 μg) was reverse transcribed using AffinityScript QPCR cDNA Synthesis kit ([…], Cedar Creek, Tex.) with random primer as instructed by the manufacture. Reverse transcriptase negative controls were used in order to control for genomic DNA contamination. 1 μl of the resulting cDNA was used as a template for real-time PCR amplification.
RNA Interference (RNAi). RNAi CD163 pool and control RNAi was purchased from Santa Cruz Biotechnologies. The siRNAs pool was transfected into macrophages with Lipofectamine RNAimax (Invitrogen), following the manufacturer's protocol. Experiments were carried out 48 h after transfection.

Substance P (RPKPQQFFGLM; ends and bridges not checked; UniProt P20366 58-68, looked up) [SP, undecapeptide neurotransmitter of the tachykinin family; purchased from Sigma]
effect on HIV infection of MDM (HIV): promotes HIV infection | intracellular Ca2+ increase in lymphocytes (lymphocytes): did not induce intracellular Ca^2+ increase | extent of CD163 induction compared with IL-10 (CD163): lower extent than that induced by IL-10 | CD163 expression, time course (CD163; 4 days): significant increase | CD163 expression, time course (CD163; 6 days): did not persist | CD163 expression, dose response (CD163; SP 0.3-10 μM, 4 days): significant increase | levels of membrane bound CD163 with increasing doses (CD163; monocytes in AIM V medium without FBS, 4 days after treatment): progressively higher

Neurokinin B [NKB]
Ca2+ response to agonist (NK1R; 10 μM agonist, SP induced a response in the same samples): failed to induce Ca^2+ responses

C[C@@H](O[C@H]1OCCN(Cc2n[nH]c(=O)[nH]2)[C@H]1c1ccc(F)cc1)c1cc(C(F)(F)F)cc(C(F)(F)F)c1 [Aprepitant, aprepitant]
effect on SP induced calcium response (NK1R; pre-treatment with 50 μM for 15 minutes before adding 10 μM SP): abolished SP induced calcium response

Hb-Hp complexes: hemoglobin-haptoglobin complexes, Hb and Hp added in a 1:1 molar ratio; ligand of CD163
number of infected cells/well (GFP fluorescence) [1]: concentration-dependent decrease | HIV infection of macrophages (HIV GAG, RT PCR) (HIV-Bal): concentration-dependent decrease

B1: interleukin-10 (protein, UniProt P22301 19-178, looked up)
Interleukin-10: SPGQGTQSENSCTHFPGNLPNMLRDLRDAFSRVKTFFQMKDQLDNLLLKESLLEDFKGYLGCQALSEMIQFYLEEVMPQAENQDPDIKAHVNSLGENLKTLRLRLRRCHRFLPCENKSKAVEQVKNAFNKLQEKGIYKAMSEFDIFINYIEAYMTMKIRN
notes: anti-inflammatory mediator that upregulates CD163 expression
CD163 expression, dose response (CD163; 0.2 ng/ml IL-10, 4 days of culture): significant increase | expression of CD163, time course (CD163; 20 ng/ml IL-10, 2 days): significant increase | CD163 expression, dose response (CD163; 20 ng/ml IL-10, 4 days of culture): had not induced maximal increase | expression of CD163, time course (CD163; 20 ng/ml IL-10, days 4 and 6, compared with day 2): higher
